Source: patent US10729710B2, “Catecholamine prodrugs for use in the treatment of Parkinson's disease” (H. Lundbeck A/S, priority 2017, dated 2020)

Columns and labels:
[1] = PK experiments in rats: plasma compound (I) after oral dosing of prodrugs; format: in vivo, Han Wistar rats; conditions: Wistar rats, FIG. 2, doses equal to 287 μg/kg of compound (I)
Method: Plasma was placed on water-ice following collection. Final storage at approximately −70° C.
Mobile phase B: Acetonitrile. […] Flow rate 0.5 mL/min.
The rats had unrestricted access to the diet.
Mobile phase B: Acetonitrile+0.2% formic acid. […] Flow rate 0.3 mL/min.
Han Wistar rats were supplied by Envigo, UK. […] The rats received a standard laboratory diet Teklad 2014C. The rats had unrestricted access to the diet.

[2] = molecular target: human 5-HT2B receptor (Homo sapiens (Human), UniProt P41595); assay: 5-HT2B radioligand binding assay ([125I](±)DOI); conditions: 0.2 nM [125I](±)DOI, read-out: 5-HT2B binding affinity (% inhibition of control, specific binding at concentration indicated)
human 5-HT2B receptor, sequence (P41595 whole entry): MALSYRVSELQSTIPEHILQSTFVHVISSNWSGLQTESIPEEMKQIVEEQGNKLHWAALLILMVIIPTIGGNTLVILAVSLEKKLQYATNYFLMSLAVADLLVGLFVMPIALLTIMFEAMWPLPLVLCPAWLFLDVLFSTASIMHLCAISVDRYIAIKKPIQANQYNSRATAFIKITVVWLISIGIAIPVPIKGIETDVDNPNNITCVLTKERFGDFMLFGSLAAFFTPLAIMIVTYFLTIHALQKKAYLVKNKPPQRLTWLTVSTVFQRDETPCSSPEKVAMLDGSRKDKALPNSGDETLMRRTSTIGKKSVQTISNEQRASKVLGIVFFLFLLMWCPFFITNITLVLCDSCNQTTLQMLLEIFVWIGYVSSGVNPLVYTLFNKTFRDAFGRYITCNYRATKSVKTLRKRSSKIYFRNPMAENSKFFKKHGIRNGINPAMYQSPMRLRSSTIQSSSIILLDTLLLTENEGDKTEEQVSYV
Method: Membrane homogenates prepared from CHO cells expressing the human 5HT2B receptor were incubated for 60 min at room temperature with 0.2 nM [125I](±)DOI (1-(4-iodo-2, 5-dimethoxyphenyl)propan-2-amine) in the absence or presence of the test compound in a buffer containing 50 mM Tris-HCl (pH 7.4), 5 mM MgCl2, 10 μM pargyline and 0.1% ascorbic acid. Nonspecific binding is determined in the presence of 1 μM (±)DOI. Following incubation, the samples were filtered rapidly under vacuum through glass fiber filters (GF/B, Packard) presoaked with 0.3% polyethyleneimine (PEI) and rinsed several times with ice-cold 50 mM Tris-HCl using a 96-sample cell harvester (Unifilter, Packard). The filters were dried and counted for radioactivity in a scintillation counter (Topcount, Packard) using a scintillation cocktail (Microscint 0, Packard). The results are expressed as a percent inhibition of the control radioligand specific binding. The standard reference compound was (±)DOI, which was tested in each experiment at several concentrations to obtain a competition curve from which its IC50 is calculated.

[3] = test system: hepatocytes from rat; assay: Conversion to compound (I) in rat hepatocytes; format: in vitro ADME; conditions: 1 μg/mL, 37° C., 0.25-60 minutes, FIG. 7a
Method: (§1) The cell concentration at incubation was 1×10^6 viable cells/mL. The incubations were performed in glass tubes at 37° C. with a total incubation volume of 3.5 mL and with duplicate incubations for each test item. The 3.5 mL of hepatocyte suspension was equilibrated for 10 minutes in a water bath set to 37° C. where after the incubations were initiated by adding 3.5 μL of a stock solution of the test item in DMSO (Dimethyl sulfoxide) and gently inverting the tubes. The final solvent concentration in the incubations was 0.1% DMSO. Samples of 600 μL were withdrawn from the incubations at the pre-determined time points of 0.25, 5, 15, 30 and 60 minutes after ensuring homogeneity of hepatocyte suspensions. The withdrawn volume was added to 1 mL Nunc cryo tubes on wet ice containing 60 μL of ice cold ascorbic acid (100 mg/mL) and 30 μL of ice cold 100 mM saccharic acid 1.4-lactone in 0.5 M citric acid. The tubes were mixed and 35 μL of a solution of ice cold 20% formic acid was added. The tubes were mixed thoroughly and stored at −80° C. awaiting analysis. Analysis method and Instrumentation used for analysis of (I) from dosing (Id-ia), (Id-ib), (Id-iia) and (Id-iib), were the one described in Examples 4 and 5 below in the section “Instrumentation used for analysis of compound (I) from dosing of compounds (Ic), (Id-ia), (Id-ib), (Id-iia), (Id-iib), (Id-iab) and (Id-iiab).”
(§2) Analysis method and Instrumentation used for analysis of (I) from dosing (Id-iab) and (Id-iiab) consisted of mixing equal aliquots of the samples and precipitation solution (acetonitrile (MeCN) with 10% methanol (MeOH) and 1% formic acid), followed by centrifugation at 4° C. at 16000 g for 10 minutes. Supernatants were collected and analysed by LC-MS/MS. Mass spectrometer: Waters Acquity—Waters Xevo TQ-MS. Analytical column: Acquity UPLC HSS T3, 100×2.1 mm, 1.8 μm. Mobile phase A: 0.2% formic acid in water. Mobile phase B: 0.2% formic acid in acetonitrile. Gradient run from 95/5% to 60/40 in 5 min. Flow rate 0.3 mL/min. MRM monitoring of (I) in the study samples and in the analytical standards.

[4] = test system: hepatocytes from human; assay: Conversion to compound (I) in human hepatocytes; format: in vitro ADME; conditions: 1 μg/mL, 37° C., 0.25-60 minutes, FIG. 7b
Method: as §1, §2

[5] = Conversion to compound (I) in fresh rat blood; format: in vitro ADME; conditions: fresh blood 37° C., 1 μg/mL, 0-60 minutes, FIG. 8a
Method: (§3) Conversion of (Id-ia), (Id-ib), (Id-iia) and (Id-iib) in human blood (average of 3 donors) and rat blood (average of 45 donors) to (I) was shown in fresh blood at 37° C. spiked with 1 μg/mL of (Id-ia), (Id-ib), (Id-iia) and (Id-iib) separately, (I) was measured at 0, 5, 15, 30 and 60 minutes in isolated plasma. Analysis method and Instrumentation as described in Examples 4 and 5 below in the section “Instrumentation used for analysis of compound (I) from dosing of compounds (Ic), (Id-ia), (Id-ib), (Id-iia), (Id-iib), (Id-iab) and (Id-iiab).”

[6] = Conversion to compound (I) in fresh human blood; format: in vitro ADME; conditions: fresh blood 37° C., 1 μg/mL, 0-60 minutes, FIG. 8b
Method: as §3

| Structure (SMILES) | plasma profile of compound (I) after oral dosing (in words) [1] | inhibition at 10 µM [2] [%] | conversion to compound (I) in rat hepatocytes [3] | conversion to compound (I) in human hepatocytes [4] | conversion to compound (I) in rat blood [5] | conversion to compound (I) in human blood [6] |
| --- | --- | --- | --- | --- | --- | --- |
| CCCN1CCC[C@@H]2Cc3c(ccc(O[C@@H]4O[C@H](C(=O)O)[C@@H](O)[C@H](O)[C@H]4O)c3O[C@@H]3O[C@H](C(=O)O)[C@@H](O)[C@H](O)[C@H]3O)C[C@H]21 [(Id-iab), (2S,2′S,3S,3′S,4S,4′S,5R,5′R,6S,6′S)-6,6′-(((4aR,10aR)-1-propyl-1,2,3,4,4a,5,10,10a-octahydrobenzo[g]quinoline-6,7-diyl)bis(oxy))bis(3,4,5-trihydroxytetrahydro-2H-pyran-2-carboxylic acid)] | slower absorption rate avoiding rapid peak concentrations accompanied by a sustained exposure of compound (I) in plasma | 17 | time dependent conversion to compound (I) | time dependent conversion to compound (I) |  |  |
| CCCN1CCC[C@@H]2Cc3c(ccc(O[C@@H]4O[C@H](C(=O)O)[C@@H](O)[C@H](O)[C@H]4O)c3O)C[C@H]21 [(Id-ib), (2S,3S,4S,5R,6S)-3,4,5-trihydroxy-6-(((4aR,10aR)-6-hydroxy-1-propyl-1,2,3,4,4a,5,10,10a-octahydrobenzo[g]quinolin-7-yl)oxy)tetrahydro-2H-pyran-2-carboxylic acid] | slower absorption rate avoiding rapid peak concentrations accompanied by a sustained exposure of compound (I) in plasma |  | time dependent conversion to compound (I) | time dependent conversion to compound (I) | time dependent conversion to compound (I) | time dependent conversion to compound (I) |
